Values after ≈ are worked out from the molar mass of the structure shown. Where two headings read alike, the source gives them in different places.
Assays:
Assay in all cases: in vitro antibacterial activity, agar dilution method (MIC)
Format in all cases: cell-based
Enterococcus Faecium = details: Enterococcus faecium, ATCC8043, strain ATCC 8043; BHI agar, 20-24 hours; read-out: MIC
Protocol: (§1) The test medium was Brain Heart Infusion (BHI) agar. The antibacterial agent was dissolved at a concentration of 2,000 ug/mL. Test plates were then prepared, usually 12 two-fold dilutions. After adding the sample to the plates, 10 mL of cooled BHI agar medium was added to each plate. The organisms were grown overnight in BHI broth (Difco) in a 35°-37° C. incubator.
(§2) On the day of testing, the bacterial suspensions were diluted 1:100 in sterile distilled water, except for a few slow-growing organisms (usually Micrococcus and Streptococcus) which were diluted 1:10. The plate was then inoculated with approximately 10^4 organisms. This was incubated in a 35°-37° C. incubator for 20-24 hours. Thereafter, the plates were read to determine the minimum inhibitory concentration (MIC) defined as the lowest concentration of drug yielding no growth on the plate, a slight haze, or sparsely isolated colonies on the inoculum spot as compared to the growth control.

Streptococcus Bovis = details: Streptococcus equinus, strain A5169; BHI agar, 20-24 hours
Protocol: as §1, §2

Streptococcus Agalactiae = details: Streptococcus agalactiae
Protocol: as §1, §2

Streptococcus Pyogenes = details: Streptococcus pyogenes
Protocol: as §1, §2

Staphylococcus Aureus = details: Staphylococcus aureus, BHI agar, 20-24 hours, read-out: MIC
Protocol: as §1, §2

Micrococcus Luteus = details: Micrococcus luteus, BHI agar, 20-24 hours, read-out: MIC
Protocol: as §1, §2

Haemophilus Influenzae = details: Haemophilus influenzae, BHI agar, 20-24 hours
Protocol: as §1, §2

Klebsiella Pneumoniae = details: Klebsiella pneumoniae, ATCC8045, strain ATCC 8045; BHI agar, 20-24 hours; read-out: MIC
Protocol: as §1, §2

Enterobacter Aerogenes = details: Klebsiella aerogenes, ATCC13048, strain ATCC 13048; BHI agar, 20-24 hours; read-out: MIC
Protocol: as §1, §2

[1] = test system: Staphylococcus Epidermidis; details: Staphylococcus epidermidis, strain 3519; BHI agar, 20-24 hours; read-out: MIC
Protocol: as §1, §2

Pseudomonas Aeruginosa = details: Pseudomonas aeruginosa, BHI agar, 20-24 hours, read-out: MIC
Protocol: as §1, §2

Acinetobacter Sp = details: Acinetobacter, strain CMX 669; BHI agar, 20-24 hours; read-out: MIC
Protocol: as §1, §2

Providencia Stuartii = details: Providencia stuartii; strain CMX 640; BHI agar, 20-24 hours; read-out: MIC
Protocol: as §1, §2

Pseudomonas Cepacia = details: Burkholderia cepacia; strain 296I; BHI agar, 20-24 hours; read-out: MIC
Protocol: as §1, with “Compounds 1 to 8 were evaluated for antibacterial activity by the agar dilution method to determine the degree of in vitro susceptibility of aerobic microorganisms to antimicrobial agents. The test” for “The test”
as §2

Escherichia Coli = details: Escherichia coli, BHI agar, 20-24 hours, read-out: MIC
Protocol: as §1, with “Compounds 1 to 8 were evaluated for antibacterial activity by the agar dilution method to determine the degree of in vitro susceptibility of aerobic microorganisms to antimicrobial agents. The test” for “The test”
as §2

[2] = strain 930 CONST, BHI agar, 20-24 hours, read-out: MIC
[3] = strain 2548 INDUC, BHI agar, 20-24 hours, read-out: MIC
[4] = ATCC9795, strain ATCC 9795, read-out: MIC
[5] = ATCC10211, strain ATCC 10211, read-out: MIC
[6] = ATCC19418, strain ATCC 19418, read-out: MIC
[7] = ATCC43095, strain ATCC 43095, read-out: MIC
[8] = strain DILL AMP R, read-out: MIC
[9] = strain SOL AMP R, read-out: MIC
[10] = strain SPK AMP R, read-out: MIC

Compound `CCC1OC(=O)CC(O)C(C)C(OC2OC(C)CC(N(C)C)C2O)C(CC=O)CC(C)C(N(C)C)CCC(C)=CC1COC(C)=O` (stereo not drawn) [Example 8, [9S]-23-O-Acetyl-9-deoxo-4'-deoxy-10,11-dihydro-9-N,N-dimethylamino-5-O-mycaminosyl-tylonide] has an MIC (Enterococcus Faecium) of 1.56 µg/mL (≈ 2.38 µM), an MIC (Streptococcus Bovis) of 0.1 µg/mL (≈ 0.153 µM) and an MIC (Streptococcus Agalactiae; strain CMX 508, BHI agar, 20-24 hours, read-out: MIC) of 0.39 µg/mL (≈ 0.596 µM). The MIC (Streptococcus Pyogenes; [2]) was 50 µg/mL (≈ 76.3 µM), the MIC (Streptococcus Pyogenes; [3]) was 1.56 µg/mL (≈ 2.38 µM) and the MIC (Streptococcus Pyogenes; strain EES61, BHI agar, 20-24 hours, read-out: MIC) was 0.78 µg/mL (≈ 1.19 µM). It also gave an MIC (Staphylococcus Aureus; ATCC6538P, strain ATCC 6538P) of 3.1 µg/mL (≈ 4.73 µM), an MIC (Staphylococcus Aureus; NCTC10649, strain NCTC 10649) of 0.78 µg/mL (≈ 1.19 µM) and an MIC (Staphylococcus Aureus; strain 45) of 3.1 µg/mL (≈ 4.73 µM). The MIC (Staphylococcus Aureus; strain 45 RAR2) was 3.1 µg/mL (≈ 4.73 µM), the MIC (Staphylococcus Aureus; strain 642A) was 3.1 µg/mL (≈ 4.73 µM) and the MIC (Staphylococcus Aureus; strain A5177) was 1.56 µg/mL (≈ 2.38 µM). The MIC (Staphylococcus Aureus; strain CMX 553) was 3.1 µg/mL (≈ 4.73 µM), the MIC (Micrococcus Luteus; ATCC4698, strain ATCC 4698) was 0.78 µg/mL (≈ 1.19 µM) and the MIC (Micrococcus Luteus; ATCC9341, strain ATCC 9341) was 0.2 µg/mL (≈ 0.305 µM). It also gave an MIC (Haemophilus Influenzae; [4]) of 2 µg/mL (≈ 3.05 µM), an MIC (Haemophilus Influenzae; [5]) of 2 µg/mL (≈ 3.05 µM) and an MIC (Haemophilus Influenzae; [6]) of 2 µg/mL (≈ 3.05 µM). It also gave an MIC (Haemophilus Influenzae; [7]) of 2 µg/mL (≈ 3.05 µM), an MIC (Haemophilus Influenzae; strain 503B, read-out: MIC) of 2 µg/mL (≈ 3.05 µM) and an MIC (Haemophilus Influenzae; strain 504, read-out: MIC) of 2 µg/mL (≈ 3.05 µM). It also gave an MIC (Haemophilus Influenzae; strain 519A) of 1 µg/mL (≈ 1.53 µM), an MIC (Haemophilus Influenzae; strain 566A, read-out: MIC) of 2 µg/mL (≈ 3.05 µM) and an MIC (Haemophilus Influenzae; strain 588A, read-out: MIC) of 2 µg/mL (≈ 3.05 µM). It also gave an MIC (Haemophilus Influenzae; strain 632A, read-out: MIC) of 2 µg/mL (≈ 3.05 µM), an MIC (Haemophilus Influenzae; strain 667A, read-out: MIC) of 2 µg/mL (≈ 3.05 µM) and an MIC (Haemophilus Influenzae; strain 747C, read-out: MIC) of 2 µg/mL (≈ 3.05 µM). The MIC (Haemophilus Influenzae; strain 751) was 8 µg/mL (≈ 12.2 µM), the MIC (Haemophilus Influenzae; strain 1177, read-out: MIC) was 0.25 µg/mL (≈ 0.382 µM) and the MIC (Haemophilus Influenzae; strain 1435) was 1 µg/mL (≈ 1.53 µM). It also gave an MIC (Haemophilus Influenzae; [8]) of 2 µg/mL (≈ 3.05 µM), an MIC (Haemophilus Influenzae; [9]) of 2 µg/mL (≈ 3.05 µM) and an MIC (Haemophilus Influenzae; [10]) of 2 µg/mL (≈ 3.05 µM). It also gave an MIC (Klebsiella Pneumoniae) of 50 µg/mL (≈ 76.3 µM), an MIC (Enterobacter Aerogenes) of 50 µg/mL (≈ 76.3 µM) and an MIC [1] of 1.56 µg/mL (≈ 2.38 µM). It also gave an MIC (Pseudomonas Aeruginosa; strain A5007) greater than 100 µg/mL, an MIC (Pseudomonas Aeruginosa; strain BMH10) greater than 100 µg/mL and an MIC (Pseudomonas Aeruginosa; strain K799/61) of 6.2 µg/mL (≈ 9.47 µM). For the same compound, the MIC (Pseudomonas Aeruginosa; strain K799/WT) was greater than 100 µg/mL, the MIC (Acinetobacter Sp) was 12.5 µg/mL (≈ 19.1 µM) and the MIC (Providencia Stuartii) was greater than 100 µg/mL. It also gave an MIC (Pseudomonas Cepacia) greater than 100 µg/mL, an MIC (Escherichia Coli; strain DC-2) of 25 µg/mL (≈ 38.2 µM) and an MIC (Escherichia Coli; strain H560) of 6.2 µg/mL (≈ 9.47 µM). The MIC (Escherichia Coli; strain JUHL) was 50 µg/mL (≈ 76.3 µM), the MIC (Escherichia Coli; strain KNK 437) was 25 µg/mL (≈ 38.2 µM) and the MIC (Escherichia Coli; strain SS) was 0.2 µg/mL (≈ 0.305 µM).
In the case of `CCC1OC(=O)CC(O)C(C)C(OC2OC(C)CC(N(C)C)C2O)C(CC=O)CC(C)C(N(C)C)C=CC(C)=CC1COC(C)=O` (stereo not drawn) [Example 5, [9R]-23-O-Acetyl-9-deoxo-4'-deoxy-9-N,N-dimethylamino-5-O-mycaminosyl-tylonide], the MIC (Enterococcus Faecium) is reported as 0.1 µg/mL (≈ 0.153 µM), the MIC (Streptococcus Bovis) is reported as 0.05 µg/mL (≈ 0.0766 µM) and the MIC (Streptococcus Agalactiae) is reported as 0.05 µg/mL (≈ 0.0766 µM). It also gave an MIC (Streptococcus Pyogenes) of 0.05 µg/mL (≈ 0.0766 µM), an MIC (Streptococcus Pyogenes; [2]) of 50 µg/mL (≈ 76.6 µM) and an MIC (Streptococcus Pyogenes; [3]) of 0.2 µg/mL (≈ 0.306 µM). For the same compound, the MIC (Staphylococcus Aureus; ATCC6538P, strain ATCC 6538P) was 0.39 µg/mL (≈ 0.597 µM), the MIC (Staphylococcus Aureus; NCTC10649, strain NCTC 10649) was 0.39 µg/mL (≈ 0.597 µM) and the MIC (Staphylococcus Aureus; strain 45) was 0.39 µg/mL (≈ 0.597 µM). The MIC (Staphylococcus Aureus; strain 45 RAR2) was 0.78 µg/mL (≈ 1.19 µM), the MIC (Staphylococcus Aureus; strain 642A) was 0.78 µg/mL (≈ 1.19 µM) and the MIC (Staphylococcus Aureus; strain A5177) was 0.39 µg/mL (≈ 0.597 µM). The MIC (Staphylococcus Aureus; strain CMX 553) was 0.78 µg/mL (≈ 1.19 µM), the MIC (Micrococcus Luteus; ATCC4698, strain ATCC 4698) was 0.1 µg/mL (≈ 0.153 µM) and the MIC (Micrococcus Luteus; ATCC9341, strain ATCC 9341) was 0.1 µg/mL (≈ 0.153 µM). It also gave an MIC (Haemophilus Influenzae; [4]) of 2 µg/mL (≈ 3.06 µM), an MIC (Haemophilus Influenzae; [5]) of 2 µg/mL (≈ 3.06 µM) and an MIC (Haemophilus Influenzae; [6]) of 2 µg/mL (≈ 3.06 µM). For the same compound, the MIC (Haemophilus Influenzae; [7]) was 2 µg/mL (≈ 3.06 µM), the MIC (Haemophilus Influenzae; strain 503B, read-out: MIC) was 2 µg/mL (≈ 3.06 µM) and the MIC (Haemophilus Influenzae; strain 504, read-out: MIC) was 1 µg/mL (≈ 1.53 µM). It also gave an MIC (Haemophilus Influenzae; strain 519A, read-out: MIC) of 1 µg/mL (≈ 1.53 µM), an MIC (Haemophilus Influenzae; strain 566A, read-out: MIC) of 4 µg/mL (≈ 6.13 µM) and an MIC (Haemophilus Influenzae; strain 588A, read-out: MIC) of 2 µg/mL (≈ 3.06 µM). For the same compound, the MIC (Haemophilus Influenzae; strain 632A, read-out: MIC) was 2 µg/mL (≈ 3.06 µM), the MIC (Haemophilus Influenzae; strain 667A, read-out: MIC) was 2 µg/mL (≈ 3.06 µM) and the MIC (Haemophilus Influenzae; strain 747C, read-out: MIC) was 2 µg/mL (≈ 3.06 µM). The MIC (Haemophilus Influenzae; strain 751, read-out: MIC) was 4 µg/mL (≈ 6.13 µM), the MIC (Haemophilus Influenzae; strain 1177, read-out: MIC) was 0.12 µg/mL (≈ 0.184 µM) and the MIC (Haemophilus Influenzae; strain 1435, read-out: MIC) was 1 µg/mL (≈ 1.53 µM). For the same compound, the MIC (Haemophilus Influenzae; [8]) was 2 µg/mL (≈ 3.06 µM), the MIC (Haemophilus Influenzae; [9]) was 2 µg/mL (≈ 3.06 µM) and the MIC (Haemophilus Influenzae; [10]) was 2 µg/mL (≈ 3.06 µM). For the same compound, the MIC (Klebsiella Pneumoniae) was 25 µg/mL (≈ 38.3 µM), the MIC (Enterobacter Aerogenes) was 50 µg/mL (≈ 76.6 µM) and the MIC [1] was 0.39 µg/mL (≈ 0.597 µM). It also gave an MIC (Pseudomonas Aeruginosa; strain A5007) greater than 100 µg/mL, an MIC (Pseudomonas Aeruginosa; strain BMH10) of 100 µg/mL (≈ 153 µM) and an MIC (Pseudomonas Aeruginosa; strain K799/61) of 1.56 µg/mL (≈ 2.39 µM). For the same compound, the MIC (Pseudomonas Aeruginosa; strain K799/WT) was greater than 100 µg/mL, the MIC (Acinetobacter Sp) was 3.1 µg/mL (≈ 4.75 µM) and the MIC (Providencia Stuartii) was greater than 100 µg/mL. For the same compound, the MIC (Pseudomonas Cepacia) was greater than 100 µg/mL, the MIC (Escherichia Coli; strain DC-2) was 6.2 µg/mL (≈ 9.5 µM) and the MIC (Escherichia Coli; strain H560) was 3.1 µg/mL (≈ 4.75 µM). It also gave an MIC (Escherichia Coli; strain JUHL) of 12.5 µg/mL (≈ 19.1 µM), an MIC (Escherichia Coli; strain KNK 437) of 12.5 µg/mL (≈ 19.1 µM) and an MIC (Escherichia Coli; strain SS) of 0.2 µg/mL (≈ 0.306 µM).
